Measured values: patent US20110158908A1, “CYCLOSPORIN A-BINDING PROTEIN” (Sapporo Medical University, priority 2007, published 2011)

Assays:
[1] = test system: CSABP gene expression in MH14 cells; assay: Effect of anti-methylating agent on gene expression in MH14 cells (RT-PCR); format: cell-based, human; details: MH14 cells, 0.1, 0.5, 1.0 μM, 4 days
Method: 10^5 cells/well of MH14 cells (liver cancer cell line) were precultured in a 6 well plate with MH14 cell culture medium for 24 hours, and 5-aza-2′-deoxycytidine (Sigma) was then added thereto. Subsequently, medium exchange was carried out every 24 hours with a medium to which the methylation inhibitor had been added, and the cells were collected after 4 days. The amount of 5-aza-2′-deoxycytidine added was 0, 0.1, 0.5, and 1.0 μM. Total RNA was recovered from the cells thus collected in accordance with a standard method using an RNeasy kit (Qiagen, Cat. 74104). This total RNA was subjected to a reverse transcription reaction in accordance with a standard method using a Transcriptor First Strand cDNA Synthesis Kit (Roche, Cat. 04379012001), and the cDNA thus obtained was used as a template. The primer employed the above-mentioned CSABP primer (SEQ ID Nos: 5 and 6), and a PCR reaction was carried out in a Gotaq® PCR system (Promega) at 95° C., 5 minutes×1 cycle, 95° C., 0.5 minutes, 55° C., 0.5 minutes, 72° C., 2.5 minutes×35 cycles, 72° C., 7 minutes×1 cycle. As a positive control, a reaction was carried out in the same manner using the RASSF1A primers RASSF1A transcript variant D 391 to 415 forward primer: 5′-[…]-3′ (SEQ ID No: 38) and RASSF1A transcript variant D 635 to 660 reverse primer: 5′-[…]-3′ (SEQ ID No: 39), which is a gene for which a relationship between expression and DNA methylation in a promoter region has been shown by Cui X et al., Hum Pathol. 2006; 37 (3): 298-311. As an internal control, a reaction was carried out in the same manner using the above-mentioned G6PDH primer (SEQ ID Nos: 20 and 21).

[2] = molecular target: T1, recombinant full length CSABP protein (CSABP-FL) (Homo sapiens, UniProt Q9H6S0, S652N/T565S); assay: Molecular association with CSABP by SPR (Biacore 3000); format: binding; details: read-out: dissociation constant KD with CSABP
T1 construct: pET-CSABP-FL and pET-CSABP-C (FL=full length, C=C terminal region (CSABP ORF: 193rd to 1430th amino acids)); made in house; host or cells: E. coli BL21 (DE3)
T1 sequence (Q9H6S0 1-1430 T565S/S652N): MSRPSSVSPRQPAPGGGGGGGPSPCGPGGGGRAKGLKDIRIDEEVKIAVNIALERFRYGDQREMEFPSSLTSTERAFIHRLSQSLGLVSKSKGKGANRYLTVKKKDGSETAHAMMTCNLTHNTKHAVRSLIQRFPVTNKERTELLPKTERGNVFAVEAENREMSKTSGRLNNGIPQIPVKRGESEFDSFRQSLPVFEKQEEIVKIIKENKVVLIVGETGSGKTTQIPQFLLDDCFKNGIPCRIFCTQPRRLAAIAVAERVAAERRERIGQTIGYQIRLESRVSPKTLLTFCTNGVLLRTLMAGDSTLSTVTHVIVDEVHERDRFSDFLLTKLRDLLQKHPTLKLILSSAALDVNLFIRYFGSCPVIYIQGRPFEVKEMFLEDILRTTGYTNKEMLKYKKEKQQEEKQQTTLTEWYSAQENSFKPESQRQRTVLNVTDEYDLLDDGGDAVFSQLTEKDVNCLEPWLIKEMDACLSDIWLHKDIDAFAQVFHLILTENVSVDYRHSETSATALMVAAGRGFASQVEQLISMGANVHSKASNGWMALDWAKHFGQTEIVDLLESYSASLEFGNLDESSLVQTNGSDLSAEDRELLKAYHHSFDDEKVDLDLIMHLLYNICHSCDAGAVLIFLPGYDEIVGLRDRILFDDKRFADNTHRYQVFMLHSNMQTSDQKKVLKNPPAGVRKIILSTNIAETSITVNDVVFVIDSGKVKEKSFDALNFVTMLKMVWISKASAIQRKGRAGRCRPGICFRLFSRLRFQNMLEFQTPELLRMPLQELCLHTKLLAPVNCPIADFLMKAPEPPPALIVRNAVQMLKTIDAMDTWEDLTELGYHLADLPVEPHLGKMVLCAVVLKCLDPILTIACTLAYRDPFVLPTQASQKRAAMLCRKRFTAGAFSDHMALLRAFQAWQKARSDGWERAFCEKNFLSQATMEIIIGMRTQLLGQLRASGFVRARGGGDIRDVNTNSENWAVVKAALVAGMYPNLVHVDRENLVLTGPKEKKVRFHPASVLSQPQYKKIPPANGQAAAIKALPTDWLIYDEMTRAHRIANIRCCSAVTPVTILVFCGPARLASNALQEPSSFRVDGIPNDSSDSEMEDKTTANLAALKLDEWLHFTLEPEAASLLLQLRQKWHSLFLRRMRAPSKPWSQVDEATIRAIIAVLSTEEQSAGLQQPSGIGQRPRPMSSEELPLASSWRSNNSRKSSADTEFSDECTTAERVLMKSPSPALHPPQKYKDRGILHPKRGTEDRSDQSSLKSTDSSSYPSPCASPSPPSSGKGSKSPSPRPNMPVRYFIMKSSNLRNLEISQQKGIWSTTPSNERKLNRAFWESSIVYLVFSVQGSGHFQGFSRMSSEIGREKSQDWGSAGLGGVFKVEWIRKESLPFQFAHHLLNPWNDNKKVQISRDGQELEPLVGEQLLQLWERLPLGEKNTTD
Method: Molecular association between recombinant full length CSABP protein (CSABP-FL) and CsA was evaluated by an SPR (surface plasmon resonance) method. SPR measurement employed Biacore 3000 (Biacore). A purified recombinant CSABP protein was immobilized on Biacore chip CM5 by an amine coupling method (amount immobilized about 10000).

[3] = test system: CSABP expression in normal human liver cells; assay: Induction of CSABP expression by inflammatory cytokine in normal human liver cells (real time PCR); format: cell-based; details: 8 hours
Method: Normal human liver cells (Primary Human Liver Hepatocyte Cells, DS PHARMA BIOMEDICAL CO., LTD., Cat. No. ABI-3716) were cultured in a 6 well plate at a density of 2×10^5 cells/well, and human IL-1β, TNFα, or IL-6 (all from BioSource) was added thereto to give a final concentration in the well of 1 pg/mL, 100 pg/mL, or 1 ng/mL respectively. 8 hours after the addition, the cells were collected, and expression of CSABP within the cells was quantitatively determined by real time PCR in the same manner as in Example 5 (2).

Which “amount of expression of the CSABP gene” value [1] does the source give for `Nc1ncn([C@H]2C[C@H](O)[C@@H](CO)O2)c(=O)n1` [5-aza-2′-deoxycytidine] here?
Its value is “increase”.

What about the cytotoxicity [1] of the same compound?
Its cytotoxicity is “no cytotoxicity was observed”.

What about the “expression of RASSF1A (positive control gene)” value [1] of the same compound?
Its value is “increased”.

Which Kd [2] does the source give for `C=CC[C@@H]1/C=C(\C)C[C@H](C)C[C@H](OC)[C@H]2O[C@@](O)(C(=O)C(=O)N3CCCC[C@H]3C(=O)O[C@H](/C(C)=C/[C@@H]3CC[C@@H](O)[C@H](OC)C3)[C@H](C)[C@@H](O)CC1=O)[C@H](C)C[C@@H]2OC` [FK506] here?
Its Kd is 2500 nM.

With “IL-1β: human inflammatory cytokine (BioSource)” as the compound, how does the “amount of expression of CSABP compared with the control” value (shortened to “amount … compared with the control”) ([3]; 1 pg/mL) read?
The value was “some increase”.

For “IL-6: human inflammatory cytokine (BioSource)”, which “amount … compared with the control” value ([3]; 1 ng/mL) is on record?
The value was “some increase”.

How did the “amount … compared with the control” value ([3]; 100 pg/mL) turn out when TNF-α was run?
Its value is “about 1.8 times”.
